This is an account of results in patent US7211585B2, “5-HT7 receptor antagonists” (Laboratorios del Dr. Esteve, S.A., priority 2004, dated 2007).

Counter-ions that a name gives are not always drawn.

T1 sequence (P34969 whole entry): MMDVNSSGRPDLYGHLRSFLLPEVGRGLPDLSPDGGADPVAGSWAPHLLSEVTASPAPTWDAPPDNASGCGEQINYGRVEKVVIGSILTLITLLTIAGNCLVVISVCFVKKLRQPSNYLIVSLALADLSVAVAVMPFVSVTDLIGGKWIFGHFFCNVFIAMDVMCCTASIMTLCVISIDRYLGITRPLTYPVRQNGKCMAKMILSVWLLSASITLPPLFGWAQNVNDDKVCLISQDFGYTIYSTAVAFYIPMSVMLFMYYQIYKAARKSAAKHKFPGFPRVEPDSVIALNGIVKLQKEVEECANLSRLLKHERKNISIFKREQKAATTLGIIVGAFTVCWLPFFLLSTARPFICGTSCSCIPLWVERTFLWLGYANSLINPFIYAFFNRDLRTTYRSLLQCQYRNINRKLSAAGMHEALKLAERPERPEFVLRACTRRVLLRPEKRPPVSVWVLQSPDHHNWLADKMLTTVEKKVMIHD

This assay has as its target T1, Cloned Human Serotonin Receptor, subtype 7 (h5HT7) (Homo sapiens, UniProt P34969).
T1 construct: purchased PerkinElmer 6120512; host or cells: CHO cells (membranes coated on Basic FlashPlate, Cat. SMP200)
The assay is described as follows: Radioligand binding assay, cloned human 5-HT7 receptor in CHO cells, [125I]LSD, Flashplate. To be noted: h5HT7 expressed in CHO cells; [125I]LSD 0.82 nM; triplicate determinations; read-out: 5-HT7 IC-50. On the procedure:
Biological Assays Radioligand Binding
Radioligand binding assays were performed using the Cloned Human Serotonin Receptor, subtype 7 (h5HT7), expressed in CHO cells, coated on Flashplate (Basic FlashPlate Cat.: SMP200) from PerkinElmer (Cat.: 6120512). The protocol assay was essentially the recommended protocol in the Technical Data Sheet by PerkinEmer Life and Analytical Sciences. The Mass membrane protein/well was typically 12 μg and the Receptor/well was about 9–10 fmoles. The Flashplate were let equilibrate at room temperature for one hour before the addition of the components of the assay mixture. The binding buffer was: 50 mM Trish-CHl, pH 7.4, containing 10 mM MgCl2, 0.5 mM EDTA and 0.5% BSA. The radioligand was [^125I]LSD at a final concentration of 0.82 nM. Nonspecific binding was determined with 50 μM of Clozapine. The assay volume was 25 μl. TopSeal-A were applied onto Flashplate microplates and they were incubated at room temperature for 240 minutes in darkness. The radioactivity were quantified by liquid scintillation spectrophotometry (Wallac 1450 Microbeta Trilux) with a count delay of 4 minutes prior to counting and a counting time of 30 seconds per well. Competition binding data were analyzed by using the LIGAND program (Munson and Rodbard, LIGAND: A versatile, computerized approach for characterization of ligand-binding systems. Anal. Biochem. 107: 220–239, 1980) and assays were performed in triplicate determinations for each point.
With `O=S(=O)(NCCCCN1CCc2ccccc2C1)c1ccc2ccccc2c1` [Compound 2, Naphthalene-2-sulfonic acid [4-(3,4-dihydro-1H-isoquinolin-2-yl)-butyl]-amide hydrochloride], the IC50 was 59.2 nM.

`O=S(=O)(NCCCCN1CCc2ccccc2C1)c1ccccc1` [Compound 5, N-[4-(3,4-Dihydro-1H-isoquinolin-2-yl)-butyl]-benzenesulfonamidehydrochloride]: the IC50 was found to be 33.2 nM.

As to `COc1cc2c(cc1OC)CN(CCCCNS(=O)(=O)c1cc(Cl)c(F)cc1F)CC2` [Compound 116, 5-Chloro-N-[4-(6,7-dimethoxy-3,4-dihydro-1H-isoquinolin-2-yl)-butyl]-2,4-difluoro-benzenesulfonamide], the IC50 was found to be 31.1 nM.

`COc1cc2c(cc1OC)CN(CCCCNS(=O)(=O)c1ccccc1Cl)CC2` [Compound 118, 2-Chloro-N-[4-(6,7-dimethoxy-3,4-dihydro-1H-isoquinolin-2-yl)-butyl]-benzenesulfonamidehydrochloride]: the IC50 amounted to 39.2 nM.

Turning to `O=S(=O)(NCCCCN1CCc2ccccc2C1)c1cc(F)ccc1F` [Compound 140, N-[4-(3,4-Dihydro-1H-isoquinolin-2-yl)-butyl]-2,5-difluoro-benzenesulfonamidehydrochloride], the IC50 was 60.8 nM.

Turning to `O=S(=O)(NCCCCN1CCc2ccccc2C1)c1cc(F)c(F)cc1F` [Compound 142, N-[4-(3,4-Dihydro-1H-isoquinolin-2-yl)-butyl]-2,4,5-trifluoro-benzenesulfonamidehydrochloride], the IC50 turned out to be 80.4 nM.

On to `COc1cc2c(cc1OC)CN(CCCCNS(=O)(=O)c1cc(F)c(F)cc1Cl)CC2` [Compound 151, 2-Chloro-N-[4-(6,7-dimethoxy-3,4-dihydro-1H-isoquinolin-2-yl)-butyl]-4,5-difluoro-benzenesulfonamidehydrochloride], for which the IC50 was found to be 39 nM.

For the molecule `O=S(=O)(NCCCCN1CCc2ccccc2C1)c1c(F)cc(F)cc1Br` [Compound 160, 2-Bromo-N-[4-(3,4-dihydro-1H-isoquinolin-2-yl)-butyl]-4,6-difluoro-benzenesulfonamidehydrochloride], the IC50 came out at 74.4 nM.

Turning to `COc1cc2c(cc1OC)CN(CCCCNS(=O)(=O)c1cccc(C)c1)CC2` [Compound 210, N-[4-(6,7-Dimethoxy-3,4-dihydro-1H-isoquinolin-2-yl)-butyl]-3-methyl-benzenesulfonamidehydrochloride], the IC50 was 37.3 nM.

Take `COc1cc2c(cc1OC)CN(CCCCNS(=O)(=O)c1cc(C)c(Cl)cc1C)CC2` [Compound 220, 4-Chloro-N-[4-(6,7-dimethoxy-3,4-dihydro-1H-isoquinolin-2-yl)-butyl]-2,5-dimethyl-benzenesulfonamidehydrochloride]: the IC50 amounted to 67.4 nM.

`COc1ccc(OC)c(S(=O)(=O)NCCCCN2CCc3cc(OC)c(OC)cc3C2)c1` [Compound 235, N-[4-(6,7-Dimethoxy-3,4-dihydro-1H-isoquinolin-2-yl)-butyl]-2,5-dimethoxy-benzenesulfonamidehydrochloride]: the IC50 stood at 68.4 nM.

Consider `COc1cc2c(cc1OC)CN(CCCCNS(=O)(=O)c1ccccc1Br)CC2` [Compound 257, 2-Bromo-N-[4-(6,7-dimethoxy-3,4-dihydro-1H-isoquinolin-2-yl)-butyl]-benzenesulfonamidehydrochloride], for which the IC50 is 57.2 nM.
